Measurements: US6610473B1 (priority 1999, dated 2003)

Target: HPV16-E6 protein (Human papillomavirus type 16, UniProt P03126)
Sequence (P03126 whole entry): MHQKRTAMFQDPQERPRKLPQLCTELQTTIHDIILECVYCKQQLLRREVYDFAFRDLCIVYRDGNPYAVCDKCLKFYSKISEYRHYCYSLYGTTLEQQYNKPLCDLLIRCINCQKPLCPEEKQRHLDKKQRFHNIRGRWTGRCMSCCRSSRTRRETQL

Substance	clones obtained in another screening assay for HPV-E6 protein-binding peptides
NH2-LFDIFRLCAQ PVLVHGHTRV-COOH [E61-20.pep]	obtained
NH2-LVGRVRIGVS VFIRGGRLL-COOH [E61-19.pep]	obtained
